Measurements as given in PubChem BioAssay AID248 (DTP/NCI, 2004).
Several values for one entry are separate records, joined by “and”; a condition that tells them apart may be missing. Equal entries are not always repeated. Inconclusive results and toxic doses are left out. No stated cut-off is given here; in the data, active means T/C of 150% or more; inactive means T/C below 125%.

Test system: L1210 leukemia ip in BDF1 mice, survival T/C
Test: NCI In Vivo Anticancer Drug Screen. Data for tumor model L1210 Leukemia (intraperitoneal) in B6D2F1 (BDF1) mice
Conditions: endpoint: mean survival time, higher = longer survival
Procedure, shortened: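 Mice bearing the transplanted tumor received compound or vehicle. Survival of the treated group was divided by that of the vehicle-treated control group to give the ratio.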

[1] = dose: 100.0 mg/kg/injection, schedule: Q01DX009 (ip), vehicle: Klucel (hydroxypropylcellulose) (HPC)
[2] = dose: 200.0 mg/kg/injection, schedule: Q01DX009 (ip), vehicle: Klucel (hydroxypropylcellulose) (HPC)
[3] = dose: 400.0 mg/kg/injection, schedule: Q01DX009 (ip), vehicle: Klucel (hydroxypropylcellulose) (HPC)
[4] = dose: 100.0 mg/kg/injection, schedule: Q01DX001 (ip), vehicle: carboxymethylcellulose (CMC)
[5] = dose: 200.0 mg/kg/injection, schedule: Q01DX001 (ip), vehicle: carboxymethylcellulose (CMC)
[6] = dose: 100.0 mg/kg/injection, schedule: Q01DX009 (ip), vehicle: saline with Tween-80
[7] = dose: 100.0 mg/kg/injection, schedule: Q04DX002 (ip), vehicle: saline with Tween-80
[8] = dose: 200.0 mg/kg/injection, schedule: Q01DX009 (ip), vehicle: saline with Tween-80
[9] = dose: 200.0 mg/kg/injection, schedule: Q04DX002 (ip), vehicle: saline with Tween-80
[10] = dose: 400.0 mg/kg/injection, schedule: Q04DX002 (ip), vehicle: saline with Tween-80
[11] = dose: 100.0 mg/kg/injection, schedule: Q01DX001 (ip), vehicle: saline
[12] = dose: 200.0 mg/kg/injection, schedule: Q01DX001 (ip), vehicle: saline
[13] = dose: 400.0 mg/kg/injection, schedule: Q01DX001 (ip), vehicle: saline
[14] = dose: 100.0 mg/kg/injection, schedule: Q04DX003 (ip), vehicle: acetone
[15] = dose: 200.0 mg/kg/injection, schedule: Q04DX003 (ip), vehicle: acetone
[16] = dose: 400.0 mg/kg/injection, schedule: Q04DX003 (ip), vehicle: acetone
[17] = dose: 400.0 mg/kg/injection, schedule: Q01DX001 (ip), vehicle: carboxymethylcellulose (CMC)

Measured: T/C

N#CC1(NC(Cc2ccccc2)c2ccccc2)CCCC1 (stereo not given)
inactive: [1] 114 % of control | [2] 95 % of control | [3] 92 % of control

Nc1nc(N)nc(C(c2ccccc2)c2ccccc2)n1
inactive: dose: 100.0 mg/kg/injection, schedule: Q04DX002 (ip), vehicle: Klucel (hydroxypropylcellulose) (HPC) 103 % of control | dose: 200.0 mg/kg/injection, schedule: Q04DX002 (ip), vehicle: Klucel (hydroxypropylcellulose) (HPC) 94 % of control | dose: 400.0 mg/kg/injection, schedule: Q04DX002 (ip), vehicle: Klucel (hydroxypropylcellulose) (HPC) 87 % of control

CCN(CC)Cc1c(C)cc2oc(=O)c3c(c2c1O)CCCC3
inactive: [4] 93 % of control | [5] 93 % of control

O=C(Nc1ccc2ccccc2c1)c1ccc(Cl)cc1
inactive: [6] 104 % of control and 92 % of control | [7] 94 % of control and 97 % of control | dose: 100.0 mg/kg/injection, schedule: Q04DX003 (ip), vehicle: saline with Tween-80 97 % of control | [8] 97 % of control and 98 % of control | [9] 100 % of control and 101 % of control | dose: 200.0 mg/kg/injection, schedule: Q04DX003 (ip), vehicle: saline with Tween-80 101 % of control | dose: 400.0 mg/kg/injection, schedule: Q01DX009 (ip), vehicle: saline with Tween-80 95 % of control and 111 % of control | [10] 89 % of control and 90 % of control | dose: 400.0 mg/kg/injection, schedule: Q04DX003 (ip), vehicle: saline with Tween-80 97 % of control

CSCSCC(NC(=O)c1ccccc1)C(=O)O (stereo not given)
inactive: [11] 104 % of control | dose: 150.0 mg/kg/injection, schedule: Q04DX003 (ip), vehicle: saline 90 % of control | [12] 104 % of control | dose: 300.0 mg/kg/injection, schedule: Q04DX003 (ip), vehicle: saline 87 % of control | [13] 98 % of control | dose: 600.0 mg/kg/injection, schedule: Q04DX003 (ip), vehicle: saline 92 % of control

COC(=O)Cc1ccc(Br)cc1
inactive: dose: 50.0 mg/kg/injection, schedule: Q01DX009 (ip), vehicle: saline with Tween-80 106 % of control | [6] 98 % of control | [8] 88 % of control

O=C(O)CCSc1ccc2c(c1)CCCC2
inactive: [14] 99 % of control | [15] 100 % of control | [16] 96 % of control

CC(C)(C)[Si](C)(C)OC1CCP(C)(=S)CC1 (stereo not given)
inactive: [7] 98 % of control | [9] 91 % of control | [10] 95 % of control

CC(=N\N)/C(C)=N/N
inactive: dose: 6.25 mg/kg/injection, schedule: Q01DX009 (ip), vehicle: saline with Tween-80 102 % of control | dose: 12.5 mg/kg/injection, schedule: Q01DX009 (ip), vehicle: saline with Tween-80 100 % of control | dose: 25.0 mg/kg/injection, schedule: Q01DX009 (ip), vehicle: saline with Tween-80 107 % of control

O=c1[nH][nH]c(=O)c2c1nc(SCc1ccccc1Br)n2Cc1ccccc1
inactive: [4] 95 % of control | [5] 97 % of control | [17] 97 % of control

COc1cc(C(=O)N(C)C)nc(OC)n1
inactive: dose: 100.0 mg/kg/injection, schedule: Q04DX003 (ip), vehicle: saline 106 % of control | dose: 200.0 mg/kg/injection, schedule: Q04DX003 (ip), vehicle: saline 108 % of control | dose: 400.0 mg/kg/injection, schedule: Q04DX003 (ip), vehicle: saline 106 % of control

O=c1cn[nH]c(=O)[nH]1
inactive: dose: 62.5 mg/kg/injection, schedule: Q01DX009 (ip), vehicle: saline 105 % of control and 107 % of control | dose: 62.5 mg/kg/injection, schedule: Q01DX010 (ip), vehicle: saline 97 % of control and 102 % of control | dose: 110.1 mg/kg/injection, schedule: Q01DX Z (ip), vehicle: carboxymethylcellulose (CMC) 107 % of control | dose: 125.0 mg/kg/injection, schedule: Q01DX009 (ip), vehicle: saline 103 % of control and 118 % of control | dose: 125.0 mg/kg/injection, schedule: Q01DX010 (ip), vehicle: saline 94 % of control and 101 % of control | dose: 132.0 mg/kg/injection, schedule: Q01DX Z (ip), vehicle: methylcellulose (MC) 97 % of control | dose: 200.0 mg/kg/injection, schedule: Q01DX Z (ip), vehicle: methylcellulose (MC) 111 % of control | dose: 220.2 mg/kg/injection, schedule: Q01DX Z (ip), vehicle: carboxymethylcellulose (CMC) 121 % of control | dose: 250.0 mg/kg/injection, schedule: Q01DX009 (ip), vehicle: saline 100 % of control and 107 % of control | dose: 250.0 mg/kg/injection, schedule: Q01DX010 (ip), vehicle: saline 108 % of control and 111 % of control | dose: 300.0 mg/kg/injection, schedule: Q01DX Z (ip), vehicle: methylcellulose (MC) 111 % of control | dose: 440.4 mg/kg/injection, schedule: Q01DX Z (ip), vehicle: carboxymethylcellulose (CMC) 113 % of control | dose: 450.0 mg/kg/injection, schedule: Q01DX Z (ip), vehicle: methylcellulose (MC) 105 % of control | dose: 500.0 mg/kg/injection, schedule: Q01DX009 (ip), vehicle: saline 112 % of control and 120 % of control | dose: 500.0 mg/kg/injection, schedule: Q01DX010 (ip), vehicle: saline 117 % of control and 118 % of control | dose: 675.0 mg/kg/injection, schedule: Q01DX Z (ip), vehicle: methylcellulose (MC) 124 % of control | dose: 880.8 mg/kg/injection, schedule: Q01DX Z (ip), vehicle: carboxymethylcellulose (CMC) 121 % of control | dose: 1011.0 mg/kg/injection, schedule: Q01DX Z (ip), vehicle: methylcellulose (MC) 109 % of control

CC1(C)c2cc3ccc(Cl)cc3nc2-c2ccccc2C1(C)O (stereo not given)
inactive: [1] 89 % of control | [14] 98 % of control | [2] 89 % of control | [15] 101 % of control | [16] 91 % of control

COc1ccccc1/C=N/NC(=O)c1cccc2ccccc12
inactive: [13] 87 % of control

COc1ccc(C2CCc3cc(OC)c(OC)cc3C2=O)cc1OC (stereo not given)
inactive: dose: 20.0 mg/kg/injection, schedule: Q01DX009 (ip), vehicle: saline with Tween-80 93 % of control | dose: 40.0 mg/kg/injection, schedule: Q01DX009 (ip), vehicle: saline with Tween-80 94 % of control | dose: 80.0 mg/kg/injection, schedule: Q01DX009 (ip), vehicle: saline with Tween-80 90 % of control | dose: 120.0 mg/kg/injection, schedule: Q01DX009 (ip), vehicle: saline with Tween-80 93 % of control | dose: 120.0 mg/kg/injection, schedule: Q01DX009 (ip), vehicle: saline 107 % of control | dose: 240.0 mg/kg/injection, schedule: Q01DX009 (ip), vehicle: saline with Tween-80 96 % of control | dose: 240.0 mg/kg/injection, schedule: Q01DX009 (ip), vehicle: saline 96 % of control | dose: 360.0 mg/kg/injection, schedule: Q01DX009 (ip), vehicle: saline 93 % of control | dose: 545.0 mg/kg/injection, schedule: Q01DX009 (ip), vehicle: saline 91 % of control

[I][Hg][CH2]C1COCC([CH2][Hg][I])O1.[I][Hg][CH2]C1COCC([CH2][Hg][I])O1 (stereo not given)
inactive: dose: 20.0 mg/kg/injection, schedule: Q04DX003 (ip), vehicle: carboxymethylcellulose (CMC) 100 % of control | dose: 40.0 mg/kg/injection, schedule: Q01DX001 (ip), vehicle: carboxymethylcellulose (CMC) 91 % of control | dose: 40.0 mg/kg/injection, schedule: Q04DX003 (ip), vehicle: carboxymethylcellulose (CMC) 105 % of control | dose: 80.0 mg/kg/injection, schedule: Q01DX001 (ip), vehicle: carboxymethylcellulose (CMC) 93 % of control

CNC(=O)Nc1c(C)cccc1C
inactive: [1] 93 % of control | dose: 100.0 mg/kg/injection, schedule: Q04DX003 (ip), vehicle: Klucel (hydroxypropylcellulose) (HPC) 106 % of control | [2] 93 % of control | dose: 200.0 mg/kg/injection, schedule: Q04DX003 (ip), vehicle: Klucel (hydroxypropylcellulose) (HPC) 101 % of control | [3] 97 % of control | dose: 400.0 mg/kg/injection, schedule: Q04DX003 (ip), vehicle: Klucel (hydroxypropylcellulose) (HPC) 98 % of control

CC(C)COC(=O)C(C)OC(=O)OCCOCCOC(=O)OC(C)C(=O)OCC(C)C (stereo not given)
inactive: [11] 100 % of control | [12] 102 % of control | [13] 100 % of control

CNC(=O)Oc1ccccc1-c1ccccc1
inactive: [4] 100 % of control | [5] 100 % of control | [17] 96 % of control
